From patent US8614215B2, “Quinoxaline inhibitors of phosphoinositide-3-kinases (PI3Ks)” (Merck Serono SA, priority 2007, dated 2013)

Tested on: Human recombinant GST-PI3K
Experiment: PI3K induced-lipid phosphorylation, neomycin-SPA scintillation proximity assay
Type: biochemical
Details: Human recombinant GST-PI3K, SPA
From the text: The efficacy of compounds of the invention in inhibiting the PI3K induced-lipid phosphorylation may be tested in the following binding assay. The assay combines the scintillation proximity assay technology (SPA, Amersham) with the capacity of neomycin (a polycationic antibiotic) to bind phospholipids with high affinity and specificity. The Scintillation Proximity Assay is based on the properties of weakly emitting isotopes (such as ^3H, ^125I, ^33P). Coating SPA beads with neomycin allows the detection of phosphorylated lipid substrates after incubation with recombinant PI3K and radioactive ATP in the same well, by capturing the radioactive phospholipids to the SPA beads through their specific binding to neomycin.
To a 96 wells MTP containing 10 μL of the test compound of Formula (I) (solubilized in 10% DMSO; […]), the following assay components are added: 1) 10 μL of lipid micelles 2) 20 μL of Kinase buffer ([^33P]γATP162 μM/300 nCi, MgCl2 2.5 mM, DTT 2.5 mM, Na3VO4 25 uM in Hepes 40 mM, pH 7.4) and 3) 10 μL (100 ng) of Human recombinant GST-PI3K (in Hepes 40 mM, pH 7.4, ethylenglycol 4%). After incubation at room temperature for 120 minutes, with gentle agitation, the reaction is stopped by addition of 200 μL of a solution containing 250 μg of neomycin-coated PVT SPA beads, ATP 60 mM and EDTA 6.2 mM in PBS. The assay is further incubated at room temperature for 60 minutes with gentle agitation to allow binding of phospholipids to neomycin-SPA beads. After precipitation of the neomycin-coated PVT SPA beads for 5 minutes at 1500×g, radioactive PtdIns(3)P is quantified by scintillation counting in a Wallac MicroBeta™ plate counter.
The values indicated in Table I below refer to the IC50 (μM) with respect to PI3K, i.e. the amount necessary to achieve 50% inhibition of said target. Said values show a considerable inhibitory potency of quinoxaline compounds with regard to PI3K.

SMILES | IC50 [nM]
COc1ccc(CCCO)c(Nc2nc3ccccc3nc2NS(=O)(=O)c2ccc(NC(=O)CN(C)C)cc2)c1 [Example 71, 2-Dimethylamino-N-(4-{[(3-{[2-(3-hydroxypropyl)-5-methoxyphenyl]amino}quinoxalin-2-yl)]sulfamoyl}phenyl)-acetamide] | 32
COc1ccc(CCCO)c(Nc2nc3ccccc3nc2NS(=O)(=O)c2cccc(NC(=O)COCc3ccccc3)c2)c1 [Example 72] | 480
COc1ccc(CC(O)CO)c(Nc2nc3ccccc3nc2NS(=O)(=O)c2cn(C)cn2)c1 [Example 77, N-[3-({2-[(2R,2S)-2,3-Dihydroxypropyl]-5-methoxyphenyl}amino)quinoxalin-2-yl]-1-methyl-1H-imidazole-4-sulfonamide] | 120
COc1ccc(CCCO)c(Nc2nc3ccccc3nc2NS(=O)(=O)c2cccc(NC(=O)CN(C)C)c2)c1 [Example 78, 2-Dimethylamino-N-(3-{[(3-{[2-(3-hydroxypropyl)-5-methoxyphenyl]amino}quinoxalin-2-yl)]sulfamoyl}phenyl)-acetamide] | 30
COc1ccc(CN2CCN(C)CC2)c(Nc2nc3ccccc3nc2NS(=O)(=O)c2ccc(F)cc2)c1 [Example 82, 4-fluoro-N-[3-({5-methoxy-2-[(4-methylpiperazin-1-yl)methyl]phenyl}amino)quinoxalin-2-yl]benzenesulfonamide] | 110
COc1ccc(CN2CCOCC2)c(Nc2nc3ccccc3nc2NS(=O)(=O)c2cccnc2)c1 [Example 83, N-(3-{[5-methoxy-2-(morpholin-4-ylmethyl)phenyl]amino}quinoxalin-2-yl)pyridine-3-sulfonamide] | 72
COc1ccc(CC2CCC(O)CC2)c(Nc2nc3ccccc3nc2NS(=O)(=O)c2ccc(CN(C)C)cc2)c1 (stereo not shown) [Example 84, 4-[(dimethylamino)methyl]-N-[3-({2-[(4-hydroxycyclohexyl)methyl]-5-methoxyphenyl}amino)quinoxalin-2-yl]benzenesulfonamide] | 26
COc1ccc(CC2CCCCC2)c(Nc2nc3ccccc3nc2NS(=O)(=O)c2ccc(CN(C)C)cc2)c1 [Example 87, N-(3-{[2-(cyclohexylmethyl)-5-methoxyphenyl]amino}quinoxalin-2-yl)-4-[(dimethylamino)methyl]benzenesulfonamide] | 760
COc1ccc(CC2CCSCC2)c(Nc2nc3ccccc3nc2NS(=O)(=O)c2ccc(CN(C)C)cc2)c1 [Example 88, 4-[(dimethylamino)methyl]-N-(3-{[5-methoxy-2-(tetrahydro-2H-thiopyran-4-ylmethyl)phenyl]amino}quinoxalin-2-yl)benzenesulfonamide] | 35
COc1cc(CN2CCN(C)CC2)cc(Nc2nc3ccccc3nc2NS(=O)(=O)c2cccnc2)c1 [Example 92, N-[3-({3-methoxy-5-[(4-methylpiperazin-1-yl)methyl]phenyl}amino)quinoxalin-2-yl]pyridine-3-sulfonamide] | 970
COc1ccc(CCO)c(Nc2nc3ccccc3nc2NS(=O)(=O)c2ccc(CCCO)cc2)c1 [Example 93, N-(3-{[2-(2Hydroxyethyl)-5-methoxyphenyl]amino}quinoxalin-2-yl)-4-(3-hydroxypropyl)benzenesulfonamide] | 36
COc1ccc(CCO)c(Nc2nc3ccccc3nc2NS(=O)(=O)c2ccc(OCCO)cc2)c1 [Example 94] | 34
COc1ccc(CC2CCN(S(C)(=O)=O)CC2)c(Nc2nc3ccccc3nc2NS(=O)(=O)c2cn(C)cn2)c1 [Example 97, N-{3-[(5-methoxy-2-{[1-(methylsulfonyl)piperidin-4-yl]methyl}phenyl)amino]quinoxalin-2-yl}-1-methyl-1H-imidazole-4-sulfonamide] | 160
COc1ccc(C(=O)O)c(Nc2nc3ccccc3nc2NS(=O)(=O)c2cccnc2)c1 [Example 98, 4-methoxy-2-({3-[(pyridin-3-ylsulfonyl)amino]quinoxalin-2-yl}amino)benzoic acid] | 4680
COCCc1ccc(OC)cc1Nc1nc2ccccc2nc1NS(=O)(=O)C1CCN(C(C)=O)CC1 [Example 101, 1-Acetyl-N-(3-{[5-methoxy-2-(2-methoxyethyl)phenyl]amino}quinoxalin-2-yl)piperidine-4-sulfonamide] | 300

More lines, in order of falling IC50, values ahead:

IC50 [nM] | SMILES
1100 | COc1cc(CN(C)C)cc(Nc2nc3ccccc3nc2NS(=O)(=O)c2cn(C)cn2)c1 [Example 95, N-[3-({3-[(Dimethylamino)methyl]-5-methoxyphenyl}amino)quinoxalin-2-yl]-1-methyl-1H-imidazole-4-sulfonamide]
760 | COc1cc(Nc2nc3ccccc3nc2NS(=O)(=O)c2cn(C)cn2)cc(C(=O)N(C)C)c1 [Example 75, 3-Methoxy-N,N-dimethyl-5-[(3-{[(1-methyl-1H-imidazol-4-yl)sulfonyl]amino}quinoxalin-2-yl)amino]benzamide]
470 | COc1ccc(CO)c(Nc2nc3ccccc3nc2NS(=O)(=O)c2cn(C)cn2)c1 [Example 91, N-(3-{[2-(hydroxymethyl)-5-methoxyphenyl]amino}quinoxalin-2-yl)-1-methyl-1H-imidazole-4-sulfonamide]
400 | COCCNC(=O)c1cc(Nc2nc3ccccc3nc2NS(=O)(=O)c2cn(C)cn2)cc(OC)c1 [Example 80, 3-Methoxy-N-(2-methoxyethyl)-5-[(3-{[(1-methyl-1H-imidazol-4-yl)sulfonyl]amino}quinoxalin-2-yl)amino]benzamide]
350 | COc1cc(Nc2nc3ccccc3nc2NS(=O)(=O)CCCS(C)(=O)=O)cc(C(=O)NCCO)c1 [Example 73, N-(2-Hydroxyethyl)-3-methoxy-5-{[3-({[3-(methylsulfonyl)propyl]sulfonyl}amino)quinoxalin-2-yl]amino}benzamide]
200 | COCCc1ccc(OC)cc1Nc1nc2ccccc2nc1NS(=O)(=O)c1cn(C)c(CS(C)(=O)=O)n1 [Example 79, N-(3-{[5-Methoxy-2-(2-methoxyethyl)phenyl]amino}quinoxalin-2-yl)-1-methyl-2-[(methylsulfonyl)methyl]-1H-imidazole-4-sulfonamide]
100 | COc1ccc(CC2CCN(C(=O)CN(C)C)CC2)c(Nc2nc3ccccc3nc2NS(=O)(=O)c2cn(C)cn2)c1 [Example 96, N-{3-[(2-{[1-(N,N-dimethylglycyl)piperidin-4-yl]methyl}-5-methoxyphenyl)amino]quinoxalin-2-yl}-1-methyl-1H-imidazole-4-sulfonamide]
98 | COCCc1ccc(OC)cc1Nc1nc2ccccc2nc1NS(=O)(=O)C1CCNCC1 [Example 100, N-(3-{[5-Methoxy-2-(2-methoxyethyl)phenyl]amino}quinoxalin-2-yl)piperidine-4-sulfonamide]
87 | COc1ccc(CCCO)c(Nc2nc3ccccc3nc2NS(=O)(=O)c2cn(C)c(CS(C)(=O)=O)n2)c1 [Example 76, N-(3-{[2-(3-Hydroxypropyl)-5-methoxyphenyl]amino}quinoxalin-2-yl)-1-methyl-2-[(methylsulfonyl)methyl]-1H-imidazole-4-sulfonamide]
84 | COc1ccc(CCCO)c(Nc2nc3ccccc3nc2NS(=O)(=O)c2cn(C)c(CO)n2)c1 [Example 74, 2-(Hydroxymethyl)-N-(3-{[2-(3-hydroxypropyl)-5-methoxyphenyl]amino}quinoxalin-2-yl)-1-methyl-1H-imidazole-4-sulfonamide]
43 | COc1ccc(CCO)c(Nc2nc3ccccc3nc2NS(=O)(=O)c2ccc(CN3CCC(F)CC3)cc2)c1 [Example 90]
27 | COc1ccc(CCO)c(Nc2nc3ccccc3nc2NS(=O)(=O)c2ccc(NC(=O)CN(C)C)cc2)c1 [Example 70, 2-Dimethylamino-N-(4-{[(3-{[2-(2-hydroxyethyl)-5-methoxyphenyl]amino}quinoxalin-2-yl)]sulfamoyl}phenyl)-acetamide]
26 | COc1ccc(CCO)c(Nc2nc3ccccc3nc2NS(=O)(=O)c2ccc(CN(C)C)cc2)c1 [Example 89, 4-[(Dimethylamino)methyl]-N-(3-{[2-(2-hydroxyethyl)-5-methoxyphenyl]amino}quinoxalin-2-yl)benzenesulfonamide]
26 | COc1ccc(CCCO)c(Nc2nc3ccccc3nc2NS(=O)(=O)C2CCNCC2)c1 [Example 99, N-(3-{[2-(3-Hydroxypropyl)-5-methoxyphenyl]amino}quinoxalin-2-yl)piperidine-4-sulfonamide]
12 | COc1ccc(CCCO)c(Nc2nc3ccccc3nc2NS(=O)(=O)c2cccc(NC(=O)CO)c2)c1 [Example 102, 2-Hydroxy-N-(3-{[(3-{[2-(3-hydroxypropyl)-5-methoxyphenyl]amino}quinoxalin-2-yl)amino]sulfonyl}phenyl)acetamide]
10 | COc1ccc(CC2CCS(=O)(=O)CC2)c(Nc2nc3ccccc3nc2NS(=O)(=O)c2ccc(CN(C)C)cc2)c1 [Example 85, 4-[(dimethylamino)methyl]-N-[3-({2-[(1,1-dioxidotetrahydro-2H-thiopyran-4-yl)methyl]-5-methoxyphenyl}amino)quinoxalin-2-yl]benzenesulfonamide]
